Organism: Rattus norvegicus
Assay: DrugMatrix - Regimen: Daily Repeat
Type: toxicity, organism-based, Sprague-Dawley
Design: regimen Daily Repeat, gender Male, age 6-8 weeks
Conditions: in vivo, po, route oral GAVAGE, vehicle .5 % CMC; for ABSOLUTE BASOPHIL / ABSOLUTE EOSINOPHIL / ABSOLUTE LYMPHOCYTE / ABSOLUTE MONOCYTE / ABSOLUTE SEGMENTED NEUTROPHIL / BASOPHIL / EOSINOPHIL / ERYTHROCYTE COUNT / HEMATOCRIT / HEMOGLOBIN / LEUKOCYTE COUNT / LYMPHOCYTE / MEAN CORPUSCULAR HEMOGLOBIN / MEAN CORPUSCULAR HEMOGLOBIN CONCENTRATION / MEAN CORPUSCULAR VOLUME / MONOCYTE / NEUTROPHIL / NUCLEATED RED BLOOD CELLS / PLATELET COUNT: tissue Blood; for ALANINE AMINOTRANSFERASE / ALBUMIN / ALKALINE PHOSPHATASE / ASPARTATE AMINOTRANSFERASE / BLOOD UREA NITROGEN / CARBON DIOXIDE / CHLORIDE / CHOLESTEROL / CREATINE PHOSPHOKINASE / CREATININE / GLUCOSE / LACTATE DEHYDROGENASE / LIPASE / PHOSPHORUS / POTASSIUM / SODIUM / TOTAL BILIRUBIN / TOTAL PROTEIN / URIC ACID: tissue Plasma
[1] = 25 mg/kg, 120 h, dose level Low, time 5 day
[2] = 1400 mg/kg, 72 h, dose level High, time 3 day
[3] = 1400 mg/kg, 120 h, dose level High, time 5 day

## C[C@](O)(CS(=O)(=O)c1ccc(F)cc1)C(=O)Nc1ccc(C#N)c(C(F)(F)F)c1 [(R)-BICALUTAMIDE]
[1]
  ABSOLUTE BASOPHIL: 0 CELLS/uL
  ABSOLUTE EOSINOPHIL: 40.67 CELLS/uL
  ABSOLUTE LYMPHOCYTE: 7260.33 CELLS/uL
  ABSOLUTE MONOCYTE: 84 CELLS/uL
  ABSOLUTE SEGMENTED NEUTROPHIL: 381.67 CELLS/uL
  BASOPHIL: 0%
  EOSINOPHIL: 0.67%
  ERYTHROCYTE COUNT: 5.41 x10E6/uL
  HEMATOCRIT: 34.23%
  HEMOGLOBIN: 13.2 G/DL
  LEUKOCYTE COUNT: 7.77 x10E3/uL
  LYMPHOCYTE: 92.33%
  MEAN CORPUSCULAR HEMOGLOBIN: 24.4 pg
  MEAN CORPUSCULAR HEMOGLOBIN CONCENTRATION: 38.6 G/DL
  MEAN CORPUSCULAR VOLUME: 63.13 fL
  MONOCYTE: 1.33%
  NEUTROPHIL: 5.67%
  NUCLEATED RED BLOOD CELLS: 0 /100WBC
  PLATELET COUNT: 1128.67 x10E3/uL
  ALANINE AMINOTRANSFERASE: 51.67 u/L
  ALBUMIN: 4.37 G/DL
  ALKALINE PHOSPHATASE: 358.33 u/L
  ASPARTATE AMINOTRANSFERASE: 82.33 u/L
  BLOOD UREA NITROGEN: 14.67 mg/dL
  CARBON DIOXIDE: 26.67 mmol/L
  CHLORIDE: 103.67 MEQ/L
  CHOLESTEROL: 67.33 mg/dL
  CREATINE PHOSPHOKINASE: 179.33 u/L
  CREATININE: 0.2 mg/dL
  GLUCOSE: 149.33 mg/dL
  LACTATE DEHYDROGENASE: 119.67 u/L
  LIPASE: 10 u/L
  PHOSPHORUS: 11.83 mg/dL
  POTASSIUM: 6.23 MEQ/L
  SODIUM: 148.07 MEQ/L
  TOTAL BILIRUBIN: 0.2 mg/dL
  TOTAL PROTEIN: 6.5 G/DL
  URIC ACID: 1.37 mg/dL
[2]
  ABSOLUTE BASOPHIL: 0 CELLS/uL
  ABSOLUTE EOSINOPHIL: 0 CELLS/uL
  ABSOLUTE LYMPHOCYTE: 11798 CELLS/uL
  ABSOLUTE MONOCYTE: 169.33 CELLS/uL
  ABSOLUTE SEGMENTED NEUTROPHIL: 799.33 CELLS/uL
  BASOPHIL: 0%
  EOSINOPHIL: 0%
  ERYTHROCYTE COUNT: 5.52 x10E6/uL
  HEMATOCRIT: 36.3%
  HEMOGLOBIN: 14.03 G/DL
  LEUKOCYTE COUNT: 12.77 x10E3/uL
  LYMPHOCYTE: 92.67%
  MEAN CORPUSCULAR HEMOGLOBIN: 25.5 pg
  MEAN CORPUSCULAR HEMOGLOBIN CONCENTRATION: 38.63 G/DL
  MEAN CORPUSCULAR VOLUME: 65.97 fL
  MONOCYTE: 1.33%
  NEUTROPHIL: 6%
  NUCLEATED RED BLOOD CELLS: 0 /100WBC
  PLATELET COUNT: 1068 x10E3/uL
  ALANINE AMINOTRANSFERASE: 48.67 u/L
  ALBUMIN: 4.33 G/DL
  ALKALINE PHOSPHATASE: 367.67 u/L
  ASPARTATE AMINOTRANSFERASE: 67 u/L
  BLOOD UREA NITROGEN: 16.67 mg/dL
  CARBON DIOXIDE: 23 mmol/L
  CHLORIDE: 102 MEQ/L
  CHOLESTEROL: 87.33 mg/dL
  CREATINE PHOSPHOKINASE: 182.33 u/L
  CREATININE: 0.19 mg/dL
  GLUCOSE: 155.33 mg/dL
  LACTATE DEHYDROGENASE: 84.67 u/L
  LIPASE: 11 u/L
  PHOSPHORUS: 11.8 mg/dL
  POTASSIUM: 7.17 MEQ/L
  SODIUM: 143.37 MEQ/L
  TOTAL BILIRUBIN: 0.2 mg/dL
  TOTAL PROTEIN: 6.23 G/DL
  URIC ACID: 1.57 mg/dL
[3]
  ABSOLUTE BASOPHIL: 0 CELLS/uL
  ABSOLUTE EOSINOPHIL: 139 CELLS/uL
  ABSOLUTE LYMPHOCYTE: 14390.33 CELLS/uL
  ABSOLUTE MONOCYTE: 36 CELLS/uL
  ABSOLUTE SEGMENTED NEUTROPHIL: 934.67 CELLS/uL
  BASOPHIL: 0%
  EOSINOPHIL: 1%
  ERYTHROCYTE COUNT: 5.54 x10E6/uL
  HEMATOCRIT: 34.93%
  HEMOGLOBIN: 13.77 G/DL
  LEUKOCYTE COUNT: 15.5 x10E3/uL
  LYMPHOCYTE: 92.67%
  MEAN CORPUSCULAR HEMOGLOBIN: 24.87 pg
  MEAN CORPUSCULAR HEMOGLOBIN CONCENTRATION: 39.4 G/DL
  MEAN CORPUSCULAR VOLUME: 63.03 fL
  MONOCYTE: 0.33%
  NEUTROPHIL: 6%
  NUCLEATED RED BLOOD CELLS: 0.33 /100WBC
  PLATELET COUNT: 1189.67 x10E3/uL
  ALANINE AMINOTRANSFERASE: 51.33 u/L
  ALBUMIN: 4.37 G/DL
  ALKALINE PHOSPHATASE: 367.67 u/L
  ASPARTATE AMINOTRANSFERASE: 74.33 u/L
  BLOOD UREA NITROGEN: 16.67 mg/dL
  CARBON DIOXIDE: 27.33 mmol/L
  CHLORIDE: 102 MEQ/L
  CHOLESTEROL: 87.67 mg/dL
  CREATINE PHOSPHOKINASE: 121.67 u/L
  CREATININE: 0.22 mg/dL
  GLUCOSE: 150.33 mg/dL
  LACTATE DEHYDROGENASE: 70.67 u/L
  LIPASE: 10 u/L
  PHOSPHORUS: 12.73 mg/dL
  POTASSIUM: 6.81 MEQ/L
  SODIUM: 146.27 MEQ/L
  TOTAL BILIRUBIN: 0.2 mg/dL
  TOTAL PROTEIN: 6.3 G/DL
  URIC ACID: 1.8 mg/dL

— ChEMBL document CHEMBL3885881, “DrugMatrix”
